Values of other authors, collected in US20250325549A1, “ORAL TABLET COMPOSITION OF RUXOLITINIB AND METHOD FOR PREPARING SAME” (SAMYANG HOLDINGS CORPORATION, priority 2021, published 2025).

Conditions: Shi et al., J. Clin. Pharmacol. 2012

half-life: approximately 3 hours
Structure (SMILES): N#CC[C@H](C1CCCC1)n1cc(-c2ncnc3[nH]ccc23)cn1 [Ruxolitinib, (3R)-3-cyclopentyl-3-[4-(7H-pyrrolo[2,3-d]pyrimidin-4-yl)pyrazol-1-yl]propanenitrile]
